≈ marks a conversion by molar mass, not a printed value. Read-outs that look alike come from different tables or passages of the source. Starred links: 1 amine or outer side, 2 acyl side, 3 side chain; linkers in the order of their positions; H or OH if unused. Non-standard residues stand in square brackets, D forms with d. Residues, ends and D or L forms follow the SMILES beside them. Groups on a side chain read outwards from the residue. *: point of attachment. X1 = CCCCCCCCCCCCCCCC(=O)N[C@@H](CCC(=O)N[C@@H](CCC(=O)N[C@@H](CCC(=O)NCCCOCCOCCOCCCNC(=O)CCC(=O)NCCCOCCOCCOCCCNC(=O)CCC(=O)NCCCOCCOCCOCCCN*)C(=O)O)C(=O)O)C(=O)O; X2 = CCCCCCCCCCCCCCCC(=O)N[C@@H](CCC(=O)N[C@@H](CCC(=O)N[C@@H](CCC(=O)NCCCOCCOCCOCCCNC(=O)CCC(=O)NCCCOCCOCCOCCCN*)C(=O)O)C(=O)O)C(=O)O; Suc = O=C(CCC(=O)[*:2])[*:1]; αMeK = C[C@](N)(CCCCN)C(=O)O; Aib = CC(C)(N)C(=O)O
Tests used:
RXFP1 = target: T1, RXFP1 (Homo sapiens, UniProt Q9HBX9); assay: OVCAR5 cAMP assay (HTRF); assay type: cell-based; details: for EC50: OVCAR 5 cells expressing endogenous RXFP1, cAMP readout; for Emax: OVCAR 5 cells, maximal cAMP relative to H2-relaxin
T1 construct: OVCAR5 cells expressing endogenous RXFP1; endogenous in cells; host or cells: OVCAR5
T1 sequence (Q9HBX9 1-757): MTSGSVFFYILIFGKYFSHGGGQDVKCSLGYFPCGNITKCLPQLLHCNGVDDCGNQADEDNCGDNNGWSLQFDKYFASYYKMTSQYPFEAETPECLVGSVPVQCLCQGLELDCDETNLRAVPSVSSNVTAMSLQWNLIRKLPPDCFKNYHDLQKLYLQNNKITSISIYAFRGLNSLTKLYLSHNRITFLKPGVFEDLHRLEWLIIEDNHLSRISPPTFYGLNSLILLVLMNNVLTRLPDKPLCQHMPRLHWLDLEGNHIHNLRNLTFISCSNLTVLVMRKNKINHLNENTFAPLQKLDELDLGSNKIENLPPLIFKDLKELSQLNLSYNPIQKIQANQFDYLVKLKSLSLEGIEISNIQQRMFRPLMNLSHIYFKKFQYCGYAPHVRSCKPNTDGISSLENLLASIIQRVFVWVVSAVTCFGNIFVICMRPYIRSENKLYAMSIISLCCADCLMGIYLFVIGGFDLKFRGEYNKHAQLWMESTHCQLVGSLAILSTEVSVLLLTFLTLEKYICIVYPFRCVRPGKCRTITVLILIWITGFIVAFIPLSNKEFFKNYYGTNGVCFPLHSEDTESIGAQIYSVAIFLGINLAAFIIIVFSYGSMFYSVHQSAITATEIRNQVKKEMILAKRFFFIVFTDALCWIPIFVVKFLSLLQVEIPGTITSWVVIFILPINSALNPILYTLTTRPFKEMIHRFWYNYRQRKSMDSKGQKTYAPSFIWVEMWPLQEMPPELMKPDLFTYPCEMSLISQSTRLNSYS
Method in brief: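 Endogenous RXFP1 in OVCAR5 cells, pretreated 40 min at 37° C with 1 mM IBMX, then exposed to increasing peptide concentrations in serum-free medium for 30 min at 37° C. cAMP read by HTRF; EC50 by variable-slope sigmoidal fit, Emax as % of H2-relaxin maximal cAMP in same run.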

[1] = Solubility testing in buffer; assay type: physicochemical; details: target solubility 10.0 mg/ml
Protocol: Prior to the testing of solubility of a peptide batch, its purity (HPLC-UV) was determined.
Acetate Buffer 50 mM pH4.5: 0.75 g C2H3C02Na,3H2O (Sigma S7545)+0.35 ml CH3CO2H 100% solution dissolved in Millipore water, adjusted to pH with diluted (1:1) CH3CO2H and diluted to 250 ml with Millipore water.
In a 4 ml Ependorph vial, an accurately weighed sample of compound was diluted in study media to obtain target concentration of 2, 6 or 10 mg/ml of pure compound. The sample vials were shacked (rock 'roll shaker) for ˜19 h. 300 μL aliquots were filtered through a Millipore “Solvinert” plate (0.45 μm-PTFE hydrophilic).
pH was measured with a micro electrode
Waters Acquity UPLC System with DAD detector
Column: Waters Peptide Column CSH C18 (130 Å; 1.7 μm; 50*2.1 mm)
Column temperature: 60° C.
Full loop (about 5 μL)—overfill factor 5
Weak et Strong wash: H2O/ACN (75/25; V/V); Seal wash: H2O/IsOH (95/5; V/V). Mobile phase:
Solvent A: 0.05% TFA in H2O; Solvent B: 0.035% TFA in CH3CN
Gradient: from 0 to 12 min B=2% to 60%, from 12 to 14 min B=60% to 100%. Column washing 100% B 1 min, column equilibration 2% B 2.5 min.
UV detector: wavelength: 220 nm.

[2] = acetate buffer 50 mM pH 4.5, read-out: Solubility Acetate buffer pH 4.5
[3] = phosphate buffer 50 mM pH 7.4, read-out: Solubility phosphate buffer pH 7.4

## CCCCCCCCCCCCCCCC(=O)N[C@@H](CCC(=O)N[C@@H](CCC(=O)N[C@@H](CCC(=O)NCCCOCCOCCOCCCNC(=O)CCC(=O)NCCCOCCOCCOCCCNC(=O)CCC(=O)NCCCC[C@H](NC(=O)CNC(=O)[C@H](CCC(=O)O)NC(=O)C(C)(C)NC(=O)C(C)(C)NC(=O)[C@@H](NC(=O)[C@H](CCCCNC(C)=O)NC(=O)[C@H](C)NC(=O)[C@H](CCCNC(=N)N)NC(=O)[C@@H](NC(=O)[C@H](CCCCN)NC(=O)[C@H](CCC(=O)O)NC(=O)[C@H](CCCNC(=N)N)NC(=O)CNC(=O)[C@H](CCC(=O)O)NC(=O)[C@H](CC(C)C)NC(C)=O)C(C)C)[C@@H](C)CC)C(=O)N[C@@H](CO)C(=O)N[C@H](C(=O)N[C@@H](Cc1c[nH]c2ccccc12)C(=O)N[C@@H](CO)C(=O)N[C@H](CCCCN)C(=O)N[C@@H](CCCNC(=N)N)C(=O)N[C@@H](C)C(=O)N[C@@H](CCCCNC(C)=O)C(N)=O)[C@@H](C)O)C(=O)O)C(=O)O)C(=O)O [compound 17] (Ac-LEGREKVRAK(Ac)I[Aib][Aib]EGK([Suc-X2])STWS[dK]RAK(Ac)-NH2)
RXFP1
  EC50: 4.6 nM
  Emax: 91%
[1]; [2]
  solubility: 9220 µg/mL (≈ 2260 µM)
[1]; [3]
  solubility: 6810 µg/mL (≈ 1670 µM)

## CCCCCCCCCCCCCCCC(=O)N[C@@H](CCC(=O)N[C@@H](CCC(=O)N[C@@H](CCC(=O)NCCCOCCOCCOCCCNC(=O)CCC(=O)NCCCOCCOCCOCCCNC(=O)CCC(=O)NCCCOCCOCCOCCCNC(=O)CCC(=O)NCCCC[C@H](NC(=O)CNC(=O)[C@H](CCC(=O)O)NC(=O)C(C)(C)NC(=O)C(C)(C)NC(=O)[C@@H](NC(=O)[C@H](CCCCNC(C)=O)NC(=O)[C@H](C)NC(=O)[C@H](CCCNC(=N)N)NC(=O)[C@@H](NC(=O)[C@H](CCCCN)NC(=O)[C@H](CCC(=O)O)NC(=O)[C@H](CCCNC(=N)N)NC(=O)CNC(=O)[C@H](CCC(=O)O)NC(=O)[C@H](CC(C)C)NC(C)=O)C(C)C)[C@@H](C)CC)C(=O)N[C@@H](CO)C(=O)N[C@H](C(=O)N[C@@H](Cc1ccccc1)C(=O)NC(C)(C)C(=O)N[C@@H](CCCNC(=N)N)C(=O)N[C@@H](CCCNC(=N)N)C(=O)N[C@@H](C)C(=O)N[C@@H](CCCCNC(C)=O)C(N)=O)[C@@H](C)O)C(=O)O)C(=O)O)C(=O)O [compound 72] (Ac-LEGREKVRAK(Ac)I[Aib][Aib]EGK([Suc-X1])STF[Aib]RRAK(Ac)-NH2)
RXFP1
  EC50: 0.56 nM
  Emax: 91%
[1]; [2]
  solubility: 8250 µg/mL (≈ 1890 µM)
[1]; [3]
  solubility: 8720 µg/mL (≈ 1990 µM)

## CCCCCCCCCCCCCCCC(=O)N[C@@H](CCC(=O)N[C@@H](CCC(=O)N[C@@H](CCC(=O)NCCCOCCOCCOCCCNC(=O)CCC(=O)NCCCOCCOCCOCCCNC(=O)CCC(=O)NCCCOCCOCCOCCCNC(=O)CCC(=O)NCCCC[C@H](NC(=O)CNC(=O)[C@H](CCC(=O)O)NC(=O)C(C)(C)NC(=O)C(C)(C)NC(=O)[C@@H](NC(=O)[C@H](CCCCNC(C)=O)NC(=O)[C@H](C)NC(=O)[C@H](CCCNC(=N)N)NC(=O)[C@@H](NC(=O)[C@H](CC(C)C)NC(=O)[C@H](CCC(=O)O)NC(=O)[C@H](CCCNC(=N)N)NC(=O)CNC(=O)[C@H](CCC(=O)O)NC(=O)[C@H](CC(C)C)NC(C)=O)C(C)C)[C@@H](C)CC)C(=O)N[C@@H](CO)C(=O)N[C@H](C(=O)N[C@@H](Cc1ccccc1)C(=O)N[C@@H](CO)C(=O)N[C@@](C)(CCCCN)C(=O)N[C@@H](CCCNC(=N)N)C(=O)N[C@@H](C)C(=O)N[C@@H](CCCCNC(C)=O)C(N)=O)[C@@H](C)O)C(=O)O)C(=O)O)C(=O)O [compound 23] (Ac-LEGRELVRAK(Ac)I[Aib][Aib]EGK([Suc-X1])STFS[αMeK]RAK(Ac)-NH2)
RXFP1
  EC50: 11.1 nM
  Emax: 92%
[1]; [2]
  solubility: 550 µg/mL (≈ 127 µM)
[1]; [3]
  solubility: 6770 µg/mL (≈ 1560 µM)
